Measurements as given in patent US12227488B2, “Small molecule degraders of Helios and methods of use” (DANA-FARBER CANCER INSTITUTE, INC., priority 2018, dated 2025).

Experiments:
IKZF2 = assay: Cellular degradation assay, eGFP-IKZF2Δ fusion with mCherry reporter in Flp-In 293 cells; assay type: cell-based; details: 5 h incubation, n=1
Outline: (§1)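 DC50,5 h derived by variable-slope nonlinear fit of the per-well ratio of GFP-positive to mCherry-positive cells, imaged after 5 h compound exposure at 0.5% DMSO.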

CRBN and Helios (IKZF2) = target: T1, CRBN and Helios (IKZF2) (Homo sapiens, UniProt Q96SW2+Q9UKS7); assay: TR-FRET dimerization assay (CRBN-IKZF2 ternary complex formation); assay type: binding; details: n=1
T1 construct: His (N); Strep (N)
T1 sequence (Q96SW2 whole entry): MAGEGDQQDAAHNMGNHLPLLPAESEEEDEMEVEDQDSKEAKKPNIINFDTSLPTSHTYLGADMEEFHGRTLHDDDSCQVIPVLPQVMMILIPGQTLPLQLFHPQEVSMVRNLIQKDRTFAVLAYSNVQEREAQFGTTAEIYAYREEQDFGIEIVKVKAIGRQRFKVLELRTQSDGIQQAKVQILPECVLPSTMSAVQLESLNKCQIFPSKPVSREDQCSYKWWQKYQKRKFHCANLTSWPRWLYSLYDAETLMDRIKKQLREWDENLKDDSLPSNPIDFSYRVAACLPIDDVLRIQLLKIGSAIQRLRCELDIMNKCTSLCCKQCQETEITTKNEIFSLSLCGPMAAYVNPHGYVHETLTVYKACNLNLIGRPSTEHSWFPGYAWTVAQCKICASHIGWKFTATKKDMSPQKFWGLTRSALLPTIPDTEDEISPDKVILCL
T1 sequence (Q9UKS7 whole entry): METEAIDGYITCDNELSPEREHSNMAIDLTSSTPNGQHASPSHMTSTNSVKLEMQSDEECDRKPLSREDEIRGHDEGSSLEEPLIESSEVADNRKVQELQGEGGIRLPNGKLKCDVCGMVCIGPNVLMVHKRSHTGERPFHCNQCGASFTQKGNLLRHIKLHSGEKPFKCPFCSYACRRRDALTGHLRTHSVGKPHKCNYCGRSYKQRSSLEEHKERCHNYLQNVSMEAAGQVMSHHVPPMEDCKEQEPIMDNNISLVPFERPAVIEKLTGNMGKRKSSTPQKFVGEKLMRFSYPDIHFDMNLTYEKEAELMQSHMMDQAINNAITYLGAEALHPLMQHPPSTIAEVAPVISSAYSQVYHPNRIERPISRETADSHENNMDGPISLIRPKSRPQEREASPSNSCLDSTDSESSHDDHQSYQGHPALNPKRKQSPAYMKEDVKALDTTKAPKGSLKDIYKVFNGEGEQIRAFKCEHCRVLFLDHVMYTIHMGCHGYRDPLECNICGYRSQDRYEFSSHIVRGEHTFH
Outline: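 Compound-induced IKZF2 recruitment to CRBN was read as the 520/490 nm TR-FRET ratio after 15 min at rt. The mix held biotinylated IKZF2, BODIPY-labeled CRBN bound to DDB1 lacking the BPB propeller, tracer Tb-streptavidin and compound titrations; n=1, from ≥3 technical replicates per well.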

IKZF1 = target: T2, IKZF1 (Homo sapiens, UniProt Q13422); assay: Cellular degradation assay, eGFP-IKZF1Δ fusion with mCherry reporter in Flp-In 293 cells; assay type: cell-based; details: 5 h incubation, n=1
T2 construct: expressed in transfected cells; host or cells: Flp-In 293
T2 sequence (Q13422 83-213 isoform Q13422-7 limits assumed): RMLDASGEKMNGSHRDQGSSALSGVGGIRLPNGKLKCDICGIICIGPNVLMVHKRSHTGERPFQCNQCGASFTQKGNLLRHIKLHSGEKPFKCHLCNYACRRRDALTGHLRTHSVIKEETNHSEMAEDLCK
T2 sequence (Q96SW2 whole entry partner, the tested form may be a part): as the sequence (Q96SW2 whole entry) above
T2 sequence (Q16531 2-1140 partner limits assumed): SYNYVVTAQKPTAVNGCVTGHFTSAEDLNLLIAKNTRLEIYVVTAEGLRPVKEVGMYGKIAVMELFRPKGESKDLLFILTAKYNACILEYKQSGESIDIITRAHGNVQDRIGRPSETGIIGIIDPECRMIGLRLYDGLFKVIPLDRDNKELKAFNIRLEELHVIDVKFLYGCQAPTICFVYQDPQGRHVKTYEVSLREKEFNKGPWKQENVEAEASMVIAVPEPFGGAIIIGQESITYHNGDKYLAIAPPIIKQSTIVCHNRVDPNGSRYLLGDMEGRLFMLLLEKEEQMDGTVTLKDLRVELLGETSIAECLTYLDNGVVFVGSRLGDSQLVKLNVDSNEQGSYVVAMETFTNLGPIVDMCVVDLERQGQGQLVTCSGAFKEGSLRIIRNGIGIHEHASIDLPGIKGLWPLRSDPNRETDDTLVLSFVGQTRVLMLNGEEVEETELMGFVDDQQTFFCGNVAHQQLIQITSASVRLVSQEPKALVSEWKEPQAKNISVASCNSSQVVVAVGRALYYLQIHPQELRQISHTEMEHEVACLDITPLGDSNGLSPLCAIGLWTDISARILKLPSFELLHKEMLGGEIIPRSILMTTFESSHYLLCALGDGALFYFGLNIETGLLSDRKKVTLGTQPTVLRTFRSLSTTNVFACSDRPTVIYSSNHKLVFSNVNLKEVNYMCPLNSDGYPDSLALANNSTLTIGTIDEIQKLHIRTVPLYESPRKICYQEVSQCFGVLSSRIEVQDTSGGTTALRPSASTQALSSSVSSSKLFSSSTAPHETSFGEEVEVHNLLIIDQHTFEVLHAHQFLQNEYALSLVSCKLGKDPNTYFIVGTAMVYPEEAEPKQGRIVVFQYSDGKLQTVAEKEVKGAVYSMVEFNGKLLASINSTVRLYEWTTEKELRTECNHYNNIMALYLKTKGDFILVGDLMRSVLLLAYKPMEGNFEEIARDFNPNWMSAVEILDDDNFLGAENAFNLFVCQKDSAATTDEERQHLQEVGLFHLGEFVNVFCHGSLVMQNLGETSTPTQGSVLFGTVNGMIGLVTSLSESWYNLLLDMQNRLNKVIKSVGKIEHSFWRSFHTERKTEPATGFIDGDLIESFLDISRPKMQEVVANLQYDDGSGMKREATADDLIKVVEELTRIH
Outline: as §1

SALL4 ZNF1-2 = target: T3, SALL4 ZNF1-2 (Homo sapiens, UniProt Q96SW2+Q9UJQ4); assay: Cellular degradation assay, eGFP-SALL4 ZnF1-2 fusion with mCherry reporter in Flp-In 293 cells; assay type: cell-based; details: 5 h incubation, n=1
T3 construct: IKZF1Δ, IKZF2Δ, GSPT1 and SALL4 ZnF1-2 were subcloned; expressed in transfected cells; host or cells: Flp-In 293
T3 sequence (Q9UJQ4 378-438 limits assumed): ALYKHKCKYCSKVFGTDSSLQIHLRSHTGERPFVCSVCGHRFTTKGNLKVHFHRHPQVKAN
T3 sequence (Q96SW2 whole entry, the tested form may be a part): as the sequence (Q96SW2 whole entry) above
T3 sequence (Q16531 whole entry partner, the tested form may be a part): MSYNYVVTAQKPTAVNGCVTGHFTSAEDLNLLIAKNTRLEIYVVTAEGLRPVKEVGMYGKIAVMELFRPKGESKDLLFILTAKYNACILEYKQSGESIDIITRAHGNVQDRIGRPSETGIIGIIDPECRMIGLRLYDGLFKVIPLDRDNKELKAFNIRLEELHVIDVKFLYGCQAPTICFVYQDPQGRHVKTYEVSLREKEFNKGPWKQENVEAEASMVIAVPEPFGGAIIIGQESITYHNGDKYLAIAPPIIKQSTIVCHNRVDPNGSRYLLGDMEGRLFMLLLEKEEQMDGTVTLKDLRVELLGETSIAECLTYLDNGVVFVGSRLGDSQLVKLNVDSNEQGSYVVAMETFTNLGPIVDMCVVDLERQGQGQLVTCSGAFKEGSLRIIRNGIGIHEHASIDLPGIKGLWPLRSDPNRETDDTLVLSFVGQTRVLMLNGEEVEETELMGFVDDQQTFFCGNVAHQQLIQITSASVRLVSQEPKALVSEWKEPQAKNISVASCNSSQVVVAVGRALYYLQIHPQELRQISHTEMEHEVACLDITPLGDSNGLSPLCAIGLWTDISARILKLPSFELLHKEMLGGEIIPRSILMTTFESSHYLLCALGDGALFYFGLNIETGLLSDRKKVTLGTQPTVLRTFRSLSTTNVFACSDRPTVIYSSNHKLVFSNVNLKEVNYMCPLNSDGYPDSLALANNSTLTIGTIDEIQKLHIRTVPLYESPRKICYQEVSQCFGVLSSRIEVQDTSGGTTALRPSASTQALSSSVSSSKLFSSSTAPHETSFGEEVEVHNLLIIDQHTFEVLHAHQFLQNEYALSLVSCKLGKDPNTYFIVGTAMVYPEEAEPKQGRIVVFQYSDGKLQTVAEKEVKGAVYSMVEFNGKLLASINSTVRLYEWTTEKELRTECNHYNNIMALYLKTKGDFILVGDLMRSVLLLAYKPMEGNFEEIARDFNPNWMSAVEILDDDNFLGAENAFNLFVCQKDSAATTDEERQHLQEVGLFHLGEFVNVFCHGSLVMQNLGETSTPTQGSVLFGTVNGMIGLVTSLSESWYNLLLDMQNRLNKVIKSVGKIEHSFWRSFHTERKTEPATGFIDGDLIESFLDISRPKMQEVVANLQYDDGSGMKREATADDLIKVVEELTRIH
Protocol: IKZF1Δ, IKZF2Δ, GSPT1 and SALL4 ZnF1-2 were subcloned into mammalian pcDNA5/FRT Vector (Ampicillin and Hygromycin B resistant) modified to contain MCS-eGFP-P2A-mCherry. Stable cell lines expressing eGFP-protein fusion and mCherry reporter were generated using Flp-In™ 293 system. Plasmid (0.3 μg) and pOG44 (4.7 μg) DNA were preincubated in 100 μL of Opti-MEM® I (Gibco®, Life Technologies™) media containing 0.05 mg/mL Lipofectamine® 2000 (Invitrogen™) for 20 min and added to Flp-In™ 293 cells containing 1.9 ml of DMEM media (Gibco®, Life Technologies™) per well in a 6-well plate format (Falcon, 353046). Cells were propagated after 48 h and transferred into a 10 cm^2 plate (Corning, 430165) in DMEM media containing 50 μg/mL of Hygromycin B (REF 10687010, Invitrogen™) as a selection marker. Following 2-3 passage cycle, FACS (FACSAria™ II, BD) was used to enrich for cells expressing eGFP and mCherry. Cells stably expressing the IKZF1Δ, IKZF2Δ, GSPT1 or SALL4 Znf1-2 GFP fusions with mCherry reporter were seeded at 30-50% confluency in 384-well plates with 50 μL FluoroBrite™ DMEM media (Thermo Fisher Scientific, A18967) containing 10% FBS per well a day before compound treatment. Compound titrations were dispensed using a D300e Digital Dispenser (HP), normalized to 0.5% DMSO, and incubated with cells for 5 hours. The assay plate was imaged immediately using an Acumen® High Content Imager (TTP Labtech) with 488 nm and 561 nm lasers in […] grid per well format.
The resulting images were analyzed using CellProfiler™. A series of image analysis steps (‘image analysis pipeline’) was constructed. First, the red and green channels were aligned and cropped to target the middle of each well (to avoid analysis of heavily clumped cells at the edges), and a background illumination function was calculated for both red and green channels of each well individually and subtracted to correct for illumination variations across the 384-well plate from various sources of error. An additional step was then applied to the green channel to suppress the analysis of large auto fluorescent artifacts and enhance the analysis of cell specific fluorescence by way of selecting for objects under a given size, 30 A.U., and with a given shape, speckles. mCherry-positive cells were then identified in the red channel filtering for objects between 8-60 pixels in diameter and using intensity to distinguish between clumped objects. The green channel was then segmented into GFP positive and negative areas and objects were labeled as GFP positive if at least 40% of it overlapped with a GFP positive area. The fraction of GFP-positive cells/mCherry-positive cells in each well was then calculated, and the green and red images were rescaled for visualization.

GSPT1 = GSPT1 (Homo sapiens, UniProt P15170+Q96SW2); assay: Cellular degradation assay, eGFP-GSPT1 fusion with mCherry reporter in Flp-In 293 cells; assay type: cell-based; set-up: expressed in transfected cells; host or cells: Flp-In 293; details: 5 h incubation, n=1
Sequence of GSPT1 (P15170 whole entry, the tested form may be a part): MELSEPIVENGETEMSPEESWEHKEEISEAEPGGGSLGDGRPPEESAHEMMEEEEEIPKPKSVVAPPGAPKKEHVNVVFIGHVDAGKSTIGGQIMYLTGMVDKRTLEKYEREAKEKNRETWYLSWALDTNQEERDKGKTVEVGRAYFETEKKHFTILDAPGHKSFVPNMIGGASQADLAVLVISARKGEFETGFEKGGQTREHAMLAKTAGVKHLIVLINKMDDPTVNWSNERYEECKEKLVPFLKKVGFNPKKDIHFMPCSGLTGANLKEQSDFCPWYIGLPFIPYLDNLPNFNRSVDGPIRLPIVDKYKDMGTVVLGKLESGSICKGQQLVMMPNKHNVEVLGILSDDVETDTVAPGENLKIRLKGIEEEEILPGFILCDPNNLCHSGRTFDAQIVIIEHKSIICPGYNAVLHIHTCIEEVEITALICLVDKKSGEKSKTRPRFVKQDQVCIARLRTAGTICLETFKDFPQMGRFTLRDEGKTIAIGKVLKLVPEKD
Sequence of GSPT1 (Q96SW2 whole entry, the tested form may be a part): as the sequence (Q96SW2 whole entry) above
Sequence of GSPT1 (Q16531 whole entry partner, the tested form may be a part): as the sequence (Q16531 whole entry partner, the tested form may be a part) above
Outline: as §1

[1] = compound concentration 2.00E−05
[2] = compound concentration 2.00E−06
[3] = compound concentration 2.00E−07
[4] = compound concentration 6.6667E−05
[5] = compound concentration 6.6667E−06
[6] = compound concentration 6.6667E−07 (667 nM)

SMILES	IKZF2 GFP/RFP Relative Abundance (IKZF2; [1])	IKZF2 GFP/RFP Relative Abundance (IKZF2; [2])	IKZF2 GFP/RFP Relative Abundance (IKZF2; [3])	TR-FRET-IKZF2 (Normalized to CC-885) (CRBN and Helios (IKZF2); [4])	TR-FRET-IKZF2 (Normalized to CC-885) (CRBN and Helios (IKZF2); [5])	TR-FRET-IKZF2 (Normalized to CC-885) (CRBN and Helios (IKZF2); [6])	IKZF1 GFP/RFP Relative Abundance (IKZF1; [1])	IKZF1 GFP/RFP Relative Abundance (IKZF1; [2])	IKZF1 GFP/RFP Relative Abundance (IKZF1; [3])	SALL4 ZNF1-2 GFP/RFP Relative Abundance (SALL4 ZNF1-2; [1])	SALL4 ZNF1-2 GFP/RFP Relative Abundance (SALL4 ZNF1-2; [2])	SALL4 ZNF1-2 GFP/RFP Relative Abundance (SALL4 ZNF1-2; [3])	GSPT1 GFP/RFP Relative Abundance (GSPT1; [1])	GSPT1 GFP/RFP Relative Abundance (GSPT1; [2])	GSPT1 GFP/RFP Relative Abundance (GSPT1; [3])
O=C1CCC(N2C(=O)C=C(Nc3ccc(-c4ccccc4)cc3)C2=O)C(=O)N1 (stereo not drawn) [Compound 38, 3-(3-([1,1′-biphenyl]-4-ylamino)-2,5-dioxo-2,5-dihydro-1H-pyrrol-1-yl)piperidine-2,6-dione]	0.885	1.002	0.977	0.328	0.266	0.210	0.728	0.663	0.621	1.005	0.887	0.742	1.174	1.216	0.870
O=C1CCC(N2C(=O)C=C(Nc3nccs3)C2=O)C(=O)N1 (stereo not drawn) [Compound 19, 3-(2,5-dioxo-3-(thiazol-2-ylamino)-2,5-dihydro-1H-pyrrol-1-yl)piperidine-2,6-dione]	0.653	0.980	0.991	0.217	0.041	0.057	0.216	0.818	0.110	1.010	1.012	0.597	1.023	0.946	0.953
O=C1CCC(N2C(=O)C=C(Nc3ccc4cc[nH]c4c3)C2=O)C(=O)N1 (stereo not drawn) [Compound 37, 3-(3-((1H-indol-6-yl)amino)-2,5-dioxo-2,5-dihydro-1H-pyrrol-1-yl)piperidine-2,6-dione]	0.938	1.004	0.988	0.620	0.422	0.355	0.315	0.349	0.344	0.939	0.865	0.891	0.787	1.111	1.010
Cc1ccc(NC(=O)N(C)Cc2cccc(NC3=CC(=O)N(C4CCC(=O)NC4=O)C3=O)c2)cc1Cl (stereo not drawn) [Compound 52, 3-(3-chloro-4-methylphenyl)-1-(3-((1-(2,6-dioxopiperidin-3-yl)-2,5-dioxo-2,5-dihydro-1H-pyrrol-3-yl)amino)benzyl)-1-methylurea]	0.058	0.059	0.062	1.559	1.367	1.205	0.103	0.092	0.080	–	–	–	0.308	0.815	0.787
